{"source": "paper PMC12316777", "key": {"[1]": {"biological_target": "T1, SARS-CoV-2 nsp13 (helicase) (Severe acute respiratory syndrome coronavirus 2, UniProt P0DTD1)", "assay": "ATPase assay (phosphate release)", "type": "biochemical", "conditions": "for IC50: 20 nM nsp13, n = 3, read-out: IC50 (± SD) ATPase"}, "[2]": {"biological_target": "T1, SARS-CoV-2 nsp13 (helicase)", "assay": "FRET DNA duplex unwinding assay", "type": "biochemical", "conditions": "for IC50: 20 nM nsp13, n = 3, read-out: IC50 (± SD) DNA unwinding"}, "SARS-CoV-2 nsp13 [3]": {"biological_target": "T2, SARS-CoV-2 nsp13 (Severe acute respiratory syndrome coronavirus 2, UniProt P0DTD1)", "assay": "BODIPY FL ATP-γ-S fluorescence assay (ATP binding)", "conditions": "for fluorescence intensity of BODIPY FL ATP-γ-S with nsp13: 1 μM compound, 10 min pre-incubation, 10 nM BODIPY FL ATP-γ-S"}, "SARS-CoV-2 nsp13 [4]": {"biological_target": "T2, SARS-CoV-2 nsp13", "assay": "Metal displacement analysis (equilibrium dialysis, ICP-MS), nsp13", "type": "binding", "method": "Nsp13 also consists of 3 zinc finger sites at its N-terminal zinc-binding domain. Therefore, we first investigated whether Au(I) could interact with zinc fingers in nsp13 by equilibrium dialysis.\nAu(I) binding and Zn(II) release on nsp10 and nsp14 were determined by Inductively Coupled Plasma Mass Spectrometry (ICP-MS) on Agilent 7700 × ICP-MS (Agilent Technologies). […] Dialysis tubes loaded with 100 μL Zn-bound proteins (5 μM for nsp14 and nsp13 and 20 μM for nsp10) or protein buffer were placed into 50 mL dialysis buffer in the presence of different concentrations of Au(I) compounds (as Au(PEt3)Cl) with mild shaking at 18 °C overnight. The protein concentration was measured by bicinchoninic acid (BCA) assay, and the metal concentration of solution both inside and outside the dialysis tubes was determined by ICP-MS."}, "SARS-CoV-2 nsp13 [5]": {"biological_target": "T2, SARS-CoV-2 nsp13", "assay": "EMSA of nsp13 binding to dsDNA substrate", "conditions": "2 μM nsp13, 0, 2, 10 and 20 μM compound, 2 h, 100 nM DNA", "method": "We preincubated 2 μM nsp13 with different concentrations (0, 2, 10 and 20 μM) of Au(PEt3)Cl for 2 h at room temperature, then incubated with 100 nM DNA substrate to form the protein-dsDNA complex.\nEMSA for investigating the binding between nsp13 and DNA substrates was performed as previously reported. Briefly, 2 μM nsp13 was incubated with Au(PEt3)Cl in a dose-dependent manner in 20 μL binding buffer (20 mM Tris pH 7.4, 20 mM NaCl, 1 mM TCEP, 5 mM MgCl2) for 2 h at 25 °C. Then, incubated per sample at 37 °C with 100 nM dsDNA. After 15 min incubation, the reaction was stopped by 4 μL loading buffer (50% glycerol, 0.02% bromophenol blue). The reaction mixture was electrophoresed in 8% native-polyacrylamide gels at 150 V for 1 h. The gel was stained by GelRed (Sigma Aldrich) for 10 min and images were captured by iBright™ CL750 Imaging System (Thermo Fisher Scientific).\nFig. S3 EMSA image of the binding between DNA substrate and nsp13 in the presence of increasing\namounts of Au(I)- based compound (as Au(PEt3)Cl).\n(1 picture or pasted object on this page, not shown here)"}, "[6]": {"tested_on": "SARS-CoV-2 variants Omicron BA.5.2 and XBB in VeroE6-TMPRSS2 cells", "type": "cell-based"}}, "data": [{"compound": "(1-(adamantan-1-yl)thiourea)-(triethylphosphine)-gold(I) [Au-amantadine]", "values": [{"measurement": "IC50", "setting": "[1]", "result": "1.15 ± 0.23", "unit": "µM"}, {"measurement": "IC50", "setting": "[2]", "result": "0.72 ± 0.13", "unit": "µM"}, {"measurement": "fluorescence intensity of BODIPY FL ATP-γ-S with nsp13", "setting": "SARS-CoV-2 nsp13 [3]", "result": "decreased"}]}, {"compound": "[Cl][Au]", "note": "[AuCl, gold(I) chloride]", "values": [{"measurement": "IC50", "setting": "[1]", "result": "0.2 ± 0.01", "unit": "µM"}, {"measurement": "inhibition of ATPase activity", "setting": "[1]; 50 mol equiv of compound", "result": "more than 50%"}, {"measurement": "IC50", "setting": "[2]", "result": "0.2 ± 0.03", "unit": "µM"}, {"measurement": "inhibition of DNA unwinding activity", "setting": "[2]; 50 mol equiv of compound", "result": "more than 50%"}, {"measurement": "fluorescence intensity of BODIPY FL ATP-γ-S with nsp13", "setting": "SARS-CoV-2 nsp13 [3]", "result": "decreased"}]}, {"compound": "CC[PH](CC)(CC)[Au][S]CC(NC(=O)CCC(N)C(=O)O)C(=O)NCC(=O)O", "note": "[Au-GSH, ((R)-2-((S)-4-amino-4-carboxybutanamido)-3-((carboxymethyl)amino)-3-oxopropyl)thiolate)-(triethyl-phosphine)-gold(I)]", "values": [{"measurement": "ATPase enzymatic activity remaining", "setting": "[1]; 50 mol equiv of compound", "result": 51.33, "unit": "%"}, {"measurement": "DNA unwinding enzymatic activity remaining", "setting": "[2]; 50 mol equiv of compound", "result": 41.67, "unit": "%"}]}, {"compound": "CCP(CC)CC.[Au+].[Cl-]", "note": "[Au(PEt3)Cl, chloro(triethylphosphine)gold(I)]", "values": [{"measurement": "Au(I) bound to nsp13", "setting": "SARS-CoV-2 nsp13 [4]; equilibrium dialysis, ICP-MS", "result": "ca. 2.97 ± 0.20 mol equiv"}, {"measurement": "Zn(II) release from nsp13", "setting": "SARS-CoV-2 nsp13 [4]; equilibrium dialysis, ICP-MS", "result": "ca. 2.88 ± 0.18 mol equiv"}, {"measurement": "maximal binding capacity (Bmax), nsp13", "setting": "SARS-CoV-2 nsp13 [4]; nonlinear fit to specific binding plot", "result": "3.33 ± 0.11"}, {"measurement": "Kd", "setting": "SARS-CoV-2 nsp13 [4]; nonlinear fit to specific binding plot, read-out: dissociation constant (Kd), nsp13", "result": "2.29 ± 0.22", "unit": "µM"}, {"measurement": "effect on binding of nsp13 to dsDNA", "setting": "SARS-CoV-2 nsp13 [5]", "result": "did not disrupt"}, {"measurement": "IC50", "setting": "[1]", "result": "0.4 ± 0.09", "unit": "µM"}, {"measurement": "inhibition of ATPase activity", "setting": "[1]; 50 mol equiv of compound", "result": "more than 50%"}, {"measurement": "IC50", "setting": "[2]", "result": "0.33 ± 0.04", "unit": "µM"}, {"measurement": "inhibition of DNA unwinding activity", "setting": "[2]; 50 mol equiv of compound", "result": "more than 50%"}, {"measurement": "fluorescence intensity of BODIPY FL ATP-γ-S with nsp13", "setting": "SARS-CoV-2 nsp13 [3]", "result": "decreased"}, {"measurement": "fluorescence intensity of BODIPY FL ATP-γ-S with nsp13, dose dependence", "setting": "SARS-CoV-2 nsp13 [3]; 0.1, 0.2, 0.5 and 1 μM", "result": "decreased in a dose-dependent manner"}]}, {"compound": "O=S(=O)([O-])[S-].O=S(=O)([O-])[S-].[Au+].[Na+].[Na+].[Na+]", "note": "[Na3Au(S2O3)2, gold(I) sodium thiosulfate]", "values": [{"measurement": "IC50", "setting": "[1]", "result": "0.25 ± 0.08", "unit": "µM"}, {"measurement": "inhibition of ATPase activity", "setting": "[1]; 50 mol equiv of compound", "result": "more than 50%"}, {"measurement": "IC50", "setting": "[2]", "result": "0.38 ± 0.05", "unit": "µM"}, {"measurement": "inhibition of DNA unwinding activity", "setting": "[2]; 50 mol equiv of compound", "result": "more than 50%"}, {"measurement": "fluorescence intensity of BODIPY FL ATP-γ-S with nsp13", "setting": "SARS-CoV-2 nsp13 [3]", "result": "decreased"}]}, {"compound": "CC(=O)OC[C@H]1O[C@@H]([S-])[C@H](OC(C)=O)[C@@H](OC(C)=O)[C@@H]1OC(C)=O.CCP(CC)CC.[Au+]", "note": "[auranofin]", "values": [{"measurement": "maximum reduction of viral load in the cell culture supernatant", "setting": "[6]", "result": "4 − 6 log10 units"}]}]}
